The values below come from patent US20260183407A1, “DYRK/CLK PROTACS AND USES THEREOF” (Arizona Board of Regents on Behalf of the University of …, priority 2022, published 2026).

One may read the Kd as the equilibrium constant for the complex coming apart.

Assay [1] deals with T1, DYRK1A (Homo sapiens, UniProt Q13627).
T1 construct: purchased Eurofins; host or cells: E. coli BL21-derived (T7 phage display) or HEK-293
As to the kind of experiment: HiBiT split luciferase assay of targeted degradation of DYRK1A in Flp-In T-REx 293 cells. Type of assay: cell-based. Particulars: 300 nM compound, 24 h, HiBiT-tagged DYRK1A in Flp-In T-REx 293 cells, normalized to vehicle; read-out: Relative Degradation at 300 nM DYRK1A. An excerpt:
(§1) The Flp-In T-REx 293 Cell Line and the pcDNA5/FRT/TO vector (Invitrogen) were used to generate stable cell clones for tetracyclin-inducible expression of DYRK1A and DYRK1B. These cells contain a single stably integrated Flp recognition target (FRT) site, which allows for site-specific integration of the expression cassette by the Flp (Flippase) recombinase. DYRK1 constructs were designed to contain a C-terminal HiBiT tag for quantitative detection of HiBiT-tagged proteins in cellular lysates with the help a split luciferase assay (Nano-Glo HiBiT Lytic Detection System, Promega). To monitor the targeted degradation of DYRK1A or DYRK1B, cells were seeded in 96-well plates (10,000 cells/per well) and treated with doxycyclineinal concentration 2 μg/ml) to induce DYRK1 expression. Compounds with presumed PROTAC activity were administered 24 h after seeding. After further incubation for 24 h, cells were grossly and microscopically inspected for overt toxicity. Cells were lysed in 100 μL ice-cold passive lysis buffer (PLB, Promega) by orbital shaking (30 min on ice) before lysates were centrifuged in PCR tube (20 min 20,000 g, RT). A 10 μl aliquot of the supernatant was subjected to the HiBiT lytic assay. Luminescence was quantified in an Orion Microplate luminometer (Berthold Detection System, Germany). All compounds were tested in duplicate or triplicate wells (technical replicates) and at least two independent experiments. Relative degradation was calculated by normalization to vehicle-treated control samples.
For orientation: The HiBiT peptide binds its large partner to form an active luciferase.

The target in assay [2] is T2, DYRK1B (Homo sapiens, UniProt Q9Y463).
T2 construct: purchased Eurofins; host or cells: E. coli BL21-derived (T7 phage display) or HEK-293
As to the kind of experiment: HiBiT split luciferase assay of targeted degradation of DYRK1B in Flp-In T-REx 293 cells. Type of assay: cell-based. To be noted: 300 nM compound, 24 h, HiBiT-tagged DYRK1B in Flp-In T-REx 293 cells, normalized to vehicle; read-out: Relative Degradation at 300 nM DYRK1B.
Source text: as §1

The target of assay [3] is T1, DYRK1A. As to the kind of experiment: KdELECT kinase binding assay (Eurofins), DYRK1A. To be noted: 11-point 3-fold dilution series, qPCR readout; read-out: Binding Affinity (Kd) DYRK1A. The procedure: (§2) KDs were obtained from Eurofins who used the following procedure: Kinase tagged T7 phase strains were prepared in an E. coli host derived from the BL21 strain. E. coli were grown to log-phase and infected with T7 phage and incubated with shaking at 32° C. until lysis. The lysates were centrifuged and filtered to remove cell debris. The remaining kinases were produced in HEK-293 cells and subsequently tagged with DNA for qPCR detection. Streptavidin-coated magnetic beads were treated with biotinylated small molecule ligands for 30 minutes at room temperature to generate affinity resins for kinase assays. The liganded beads were blocked with excess biotin and washed with locking buffer (SeaBlock (Pierce), 1% BSA, 0.05% Tween 20, 1 mM DTT) to remove unbound ligand and to reduce non-specific binding. Binding reactions were assembled by combining kinases, liganded affinity beads, and test compounds in 1× binding buffer (20% SeaBlock, 0.17× PBS, 0.05% Tween 20, 6 mM DTT). Test compounds were prepared as 111X stocks in 100% DMSO. Kds were determined using a 11-poin 3-fold compound dilution series with three DMSO control points. All compounds for Kd measurements are distributed by acoustic transfer (non-contact dispensing) in 100% DMSO. The compounds were then diluted directly into the assays such that the final concentration of DMSO was 0.9%. All reactions performed in polypropylene 384-well plate. Each was a final volume of 0.02 mL. The assay plates were incubated at room temperature with shaking for 1 hour and the affinity beads were washed with wash buffer (1×PBS, 0.05% Tween 20). The beads were then resuspended in elution buffer (1X PBS, 0.05% Tween 20, 0.5 µM nonbiotinylated affinity ligand) and incubated at room temperature with shaking for 30 minutes. The kinase concentration in the eluates was measured by qPCR.
(In general: In qPCR the cycle at which signal appears reflects the starting amount.)

In assay [4] the target is T2, DYRK1B. Nature of the assay: KdELECT kinase binding assay (Eurofins), DYRK1B. To be noted: 11-point 3-fold dilution series, qPCR readout; read-out: Binding Affinity (Kd) DYRK1B. The procedure:
as §2

T2 sequence (Q9Y463 whole entry, species assumed): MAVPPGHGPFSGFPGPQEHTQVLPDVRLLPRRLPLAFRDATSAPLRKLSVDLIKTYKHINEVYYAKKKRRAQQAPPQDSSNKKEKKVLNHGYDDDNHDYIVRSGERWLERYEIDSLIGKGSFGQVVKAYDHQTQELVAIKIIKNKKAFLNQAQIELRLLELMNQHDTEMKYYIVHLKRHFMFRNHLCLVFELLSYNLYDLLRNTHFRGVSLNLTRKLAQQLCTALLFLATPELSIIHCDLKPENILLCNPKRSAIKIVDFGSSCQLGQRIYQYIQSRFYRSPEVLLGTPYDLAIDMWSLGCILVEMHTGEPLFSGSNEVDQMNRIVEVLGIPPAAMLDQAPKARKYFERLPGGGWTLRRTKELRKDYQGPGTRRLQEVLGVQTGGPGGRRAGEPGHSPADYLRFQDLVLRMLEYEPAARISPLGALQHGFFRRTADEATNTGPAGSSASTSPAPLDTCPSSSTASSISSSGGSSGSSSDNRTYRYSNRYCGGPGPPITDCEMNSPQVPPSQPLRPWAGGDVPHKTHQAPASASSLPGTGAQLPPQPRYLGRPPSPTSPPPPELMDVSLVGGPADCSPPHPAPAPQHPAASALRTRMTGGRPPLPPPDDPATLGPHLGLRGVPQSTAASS

As for `Cc1nc2ccc(-c3ccnc(N)c3)nc2n1-c1ccc(N2C3CCC2CN(CC#Cc2ccc(N4CCC(C(=O)N5CCC(n6cc(CNc7cccc8c7C(=O)N(C7CCC(=O)NC7=O)C8=O)cn6)CC5)CC4)nc2)C3)c(F)c1` (stereo not drawn) [Compound 21, 4-(((1-(1-(1-(5-(3-(8-(4-(5-(2-aminopyridin-4-yl)-2-methyl-3H-imidazo[4,5-b]pyridin-3-yl)-2-fluorophenyl)-3,8-diazabicyclo[3.2.1]octan-3-yl)prop-1-yn-1-yl)pyridin-2-yl)piperidine-4-carbonyl)piperidin-4-yl)-1H-pyrazol-4-yl)methyl)amino)-2-(2,6-dioxopiperidin-3-yl)isoindoline-1,3-dione], the inhibition at 0.3 µM is 30 to 60% at DYRK1A [1] and less than 30% on DYRK1B [2]. For the same compound, the figures for the Kd on DYRK1A [3] and at DYRK1B [4] were 10 to 100 nM and 100 to 1000 nM, respectively.
On to `Cc1nc2ccc(-c3ccnc(N)c3)nc2n1-c1ccc(N2CCN(CC#Cc3ccc(N4CCC(C(=O)N5CCC(n6cc(CNc7cccc8c7C(=O)N(C7CCC(=O)NC7=O)C8=O)cn6)CC5)CC4)nc3)CC2)c(C(F)(F)F)c1` (stereo not drawn) [Compound 24, 4-(((1-(1-(1-(5-(3-(4-(4-(5-(2-aminopyridin-4-yl)-2-methyl-3H-imidazo[4,5-b]pyridin-3-yl)-2-(trifluoromethyl)phenyl)piperazin-1-yl)prop-1-yn-1-yl)pyridin-2-yl)piperidine-4-carbonyl)piperidin-4-yl)-1H-pyrazol-4-yl)methyl)amino)-2-(2,6-dioxopiperidin-3-yl)isoindoline-1,3-dione], for which the inhibition at 0.3 µM at DYRK1A [1] was greater than 60%; at DYRK1B [2], less than 30%. Also, the dissociation constant (Kd) at DYRK1A [3] and at DYRK1B [4] was 10 to 100 nM throughout.
On to `Cc1nc2ccc(-c3ccnc(N)c3)nc2n1-c1ccc(N2CCN(CCOCCOCCOCCOCCNc3cccc4c3C(=O)N(C3CCC(=O)NC3=O)C4=O)CC2)c(F)c1` (stereo not drawn) [Compound 7, 4-((14-(4-(4-(5-(2-aminopyridin-4-yl)-2-methyl-3H-imidazo[4,5-b]pyridin-3-yl)-2-fluorophenyl)piperazin-1-yl)-3,6,9,12-tetraoxatetradecyl)amino)-2-(2,6-dioxopiperidin-3-yl)isoindoline-1,3-dione, N,N-Diisopropylethylamine], for which the inhibition at 0.3 µM on DYRK1A [1] was 30 to 60%; on DYRK1B [2], 30 to 50%. For the same compound, the equilibrium dissociation constant (Kd) at DYRK1A [3] and on DYRK1B [4] was less than 10 nM in each case.
On to `Cc1nc2ccc(-c3ccnc(N)c3)nc2n1-c1ccc(N2CCN(CCOCCOCCOCCNc3cccc4c3C(=O)N(C3CCC(=O)NC3=O)C4=O)CC2)c(F)c1` (stereo not drawn) [Compound 6, 4-((2-(2-(2-(2-(4-(4-(5-(2-aminopyridin-4-yl)-2-methyl-3H-imidazo[4,5-b]pyridin-3-yl)-2-fluorophenyl)piperazin-1-yl)ethoxy)ethoxy)ethoxy)ethyl)amino)-2-(2,6-dioxopiperidin-3-yl)isoindoline-1,3-dione], for which the inhibition at 0.3 µM was 30 to 60% at DYRK1A [1] and less than 30% at DYRK1B [2]. Further, the Kd on DYRK1A [3] and at DYRK1B [4] was less than 10 nM each time.
On to `Cc1ncsc1-c1ccc(CNC(=O)[C@@H]2C[C@@H](O)CN2C(=O)[C@@H](NC(=O)CCOCCOCCOCCOCCN2CCN(c3ccc(-n4c(C)nc5ccc(-c6ccnc(N)c6)nc54)cc3F)CC2)C(C)(C)C)cc1` [Compound 3, (2S,4R)-1-((S)-1-(4-(4-(5-(2-aminopyridin-4-yl)-2-methyl-3H-imidazo[4,5-b]pyridin-3-yl)-2-fluorophenyl)piperazin-1-yl)-17-(tert-butyl)-15-oxo-3,6,9,12-tetraoxa-16-azaoctadecan-18-oyl)-4-hydroxy-N-(4-(4-methylthiazol-5-yl)benzyl)pyrrolidine-2-carboxamide], for which the inhibition at 0.3 µM on DYRK1A [1] and at DYRK1B [2] was less than 30% each time. Moreover, the Kd on DYRK1A [3] and at DYRK1B [4] was less than 10 nM each time.
As for `Cc1nc2ccc(-c3ccnc(N)c3)nc2n1-c1cc(F)c(N2CCN(CC#Cc3ccc(N4CCC(C(=O)N5CCC(n6cc(CNc7cccc8c7C(=O)N(C7CCC(=O)NC7=O)C8=O)cn6)CC5)CC4)nc3)CC2)c(F)c1` (stereo not drawn) [Compound 23, 4-(((1-(1-(1-(5-(3-(4-(4-(5-(2-aminopyridin-4-yl)-2-methyl-3H-imidazo[4,5-b]pyridin-3-yl)-2,6-difluorophenyl)piperazin-1-yl)prop-1-yn-1-yl)pyridin-2-yl)piperidine-4-carbonyl)piperidin-4-yl)-1H-pyrazol-4-yl)methyl)amino)-2-(2,6-dioxopiperidin-3-yl)isoindoline-1,3-dione], the figures for the inhibition at 0.3 µM at DYRK1A [1] and on DYRK1B [2] were greater than 60% and greater than 50%, respectively. Besides, the Kd at DYRK1A [3] and at DYRK1B [4] was less than 10 nM each time.
On to `Cc1nc2ccc(-c3ccnc(N)c3)nc2n1-c1ccc(N2CCN(CC#Cc3ccc(N4CCC(C(=O)N5CCC(n6cc(CNc7cccc8c7C(=O)N(C7CCC(=O)NC7=O)C8=O)cn6)CC5)CC4)nc3)CC2)c(F)c1` (stereo not drawn) [Compound 18, 4-(((1-(1-(1-(5-(3-(4-(4-(5-(2-aminopyridin-4-yl)-2-methyl-3H-imidazo[4,5-b]pyridin-3-yl)-2-fluorophenyl)piperazin-1-yl)prop-1-yn-1-yl)pyridin-2-yl)piperidine-4-carbonyl)piperidin-4-yl)-1H-pyrazol-4-yl)methyl)amino)-2-(2,6-dioxopiperidin-3-yl)isoindoline-1,3-dione], for which the inhibition at 0.3 µM on DYRK1A [1] is greater than 60%; on DYRK1B [2] it was greater than 50%. The Kd at DYRK1A [3] is less than 10 nM; on DYRK1B [4], 10 to 100 nM.
On the same counts, the results for `Cc1ncsc1-c1ccc(CNC(=O)[C@@H]2C[C@@H](O)CN2C(=O)[C@@H](NC(=O)CCOCCOCCOCCOCCOCCN2CCN(c3ccc(-n4c(C)nc5ccc(-c6ccnc(N)c6)nc54)cc3F)CC2)C(C)(C)C)cc1` [Compound 4, (2S,4R)-1-((S)-1-(4-(4-(5-(2-aminopyridin-4-yl)-2-methyl-3H-imidazo[4,5-b]pyridin-3-yl)-2-fluorophenyl)piperazin-1-yl)-20-(tert-butyl)-18-oxo-3,6,9,12,15-pentaoxa-19-azahenicosan-21-oyl)-4-hydroxy-N-(4-(4-methylthiazol-5-yl)benzyl)pyrrolidine-2-carboxamide] are less than 30%, less than 30%, less than 10 nM and less than 10 nM.
On the same counts, the results for `Cc1nc2ccc(-c3ccnc(N)c3)nc2n1-c1ccc(N2CCN(CCOCCOCCC(=O)N3CCN(Cc4ccc(CNc5cccc6c5CN(C5CCC(=O)NC5=O)C6=O)cc4)CC3)CC2)c(F)c1` (stereo not drawn) [Compound 10, 3-(4-((4-((4-(3-(2-(2-(4-(4-(5-(2-aminopyridin-4-yl)-2-methyl-3H-imidazo[4,5-b]pyridin-3-yl)-2-fluorophenyl)piperazin-1-yl)ethoxy)ethoxy)propanoyl)piperazin-1-yl)methyl)benzyl)amino)-1-oxoisoindolin-2-yl)piperidine-2,6-dione] are 30 to 60%, less than 30%, less than 10 nM and 10 to 100 nM.
